Data: US20230096028A1, “BICYCLIC HETEROCYCLYL COMPOUNDS AND USES THEREOF” (Revolution Medicines, Inc., priority 2019, published 2023)

Legend:
[1] = test system: PC-9 cells (EGFR Ex19Del); assay: Potency Assay: pERK (SOS1 pERK IC50 Assay, AlphaLISA SureFire Ultra p-ERK1/2); format: cell-based; details: Homo sapiens; PC-9 cells (EGFR Ex19Del), 1 hour incubation, AlphaLISA p-ERK1/2; read-out: SOS1 pERK IC50
Summary of the method: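 PC-9 (EGFR Ex19Del) cells plated overnight, then treated 1 h at 37° C. with 10-point 3-fold dilutions (top 10 μM final) in duplicate. Lysate pERK1/2 measured by AlphaLISA SureFire Ultra; IC50 from 4-parameter sigmoidal fit.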

[2] = target: T1, SOS1 catalytic domain (residues 564-1049) (Homo sapiens, UniProt Q07889); assay: Potency Assay: binding affinity to SOS1 using Surface Plasmon Resonance (SPR); design: SOS1 catalytic domain (residues 564-1049) immobilized on a sensor chip; details: immobilized SOS1 catalytic domain (residues 564-1049), read-out: SOS1 SPR Equilibrium Kd
T1 sequence (Q07889 564-1049): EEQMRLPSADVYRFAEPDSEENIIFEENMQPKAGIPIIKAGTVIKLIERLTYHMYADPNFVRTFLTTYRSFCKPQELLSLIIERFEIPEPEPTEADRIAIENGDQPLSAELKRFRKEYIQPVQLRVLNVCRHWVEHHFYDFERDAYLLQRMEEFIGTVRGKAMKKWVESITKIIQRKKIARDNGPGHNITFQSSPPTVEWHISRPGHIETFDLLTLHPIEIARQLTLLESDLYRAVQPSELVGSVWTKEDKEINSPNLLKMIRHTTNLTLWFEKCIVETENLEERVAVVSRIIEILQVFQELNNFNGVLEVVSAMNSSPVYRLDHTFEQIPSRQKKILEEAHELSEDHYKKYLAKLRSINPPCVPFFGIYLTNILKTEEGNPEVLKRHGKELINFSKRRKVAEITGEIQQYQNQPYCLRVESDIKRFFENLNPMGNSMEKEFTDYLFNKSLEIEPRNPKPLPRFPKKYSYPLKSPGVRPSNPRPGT
Summary of the method: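 Avi-tagged SOS1 catalytic domain captured on streptavidin chip (~6000 RU) in 0.01 M HEPES, 0.15 M NaCl, 0.05% P20. Compound dilution series flowed at 50 μL/min for association, then buffer for dissociation, with double reference subtraction. Kd derived from end-of-association binding response plotted against concentration.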

[3] = target: T1, SOS1 catalytic domain (residues 564-1049); assay: Mode of Action Assay: inhibition of SOS1 nucleotide exchange activity (SOS1 TR-FRET IC50 Assay)

Row | Structure (SMILES) | IC50 [1] | Kd [2] | IC50 [3]
1 | C[C@@H](Nc1nc(Cl)nc2c1C[C@@H](N1CCOCC1)CC2)c1cc(N)cc(C(F)(F)F)c1 (single isomer, unassigned) [Example 170] | < 1000 nM | < 400 nM | < 1000 nM
2 | CC(C)N1CC(C)(C(=O)N2Cc3nc(Cl)nc(N[C@H](C)c4cccc(C(F)F)c4F)c3C2)C1 [Example 338] | < 1000 nM | < 400 nM | < 1000 nM
3 | C[C@@H](Nc1nc(Cl)nc2c1CN(C(=O)N1CCC13CNC3)C2)c1cccc(C(F)F)c1F [Example 392] | > 1000 nM | < 400 nM | < 1000 nM
4 | C[C@@H](Nc1nc(Cl)nc2c1CN(C(=O)C1(C#N)CN(C)C1)C2)c1cccc(C(F)F)c1F [Example 337] | > 1000 nM | < 400 nM | < 1000 nM
5 | C[C@@H](Nc1nc(Cl)nc2c1CN(C(=O)[C@@H]1COCCN1C)C2)c1cccc(C(F)F)c1F [Example 321] | < 1000 nM | < 400 nM | < 1000 nM
6 | C[C@@H](Nc1nc(Cl)nc2c1CN(C(=O)[C@@H]1CNCCO1)C2)c1cccc(C(F)F)c1F [Example 303] | < 1000 nM | < 400 nM | < 1000 nM
7 | C[C@@H](Nc1nc(Cl)nc2c1CN(C(=O)CN1CCN(C)CC1)C2)c1cccc(C(F)F)c1F [Example 283] | < 1000 nM | < 400 nM | < 1000 nM
8 | C[C@@H](Nc1nc(Cl)nc2c1CN(C(=O)c1ncccc1C(F)(F)F)C2)c1cc(N)cc(C(F)(F)F)c1 [Example 86] | < 1000 nM | < 400 nM | < 1000 nM
9 | C[C@@H](Nc1nc(Cl)nc2c1CN(C(=O)c1nccnn1)CC2)c1cc(N)cc(C(F)(F)F)c1 [Example 248] | > 1000 nM | > 400 nM | > 1000 nM
10 | C[C@@H](Nc1nc(Cl)nc2c1CN(C(=O)N1C[C@@H]3C[C@H]1CN3)C2)c1cccc(C(F)F)c1F [Example 399] | > 1000 nM | < 400 nM | < 1000 nM
11 | C[C@@H](Nc1nc(Cl)nc2c1CN(C(=O)C1(F)CNC1)C2)c1cc(N)cc(C(F)(F)F)c1 [Example 263] | < 1000 nM | < 400 nM | < 1000 nM
12 | C[C@@H](Nc1nc(Cl)nc2c1C[C@@H](N1CCOCC1)CC2)c1cccc(C(F)F)c1F [Example 440] | < 1000 nM | < 400 nM | < 1000 nM
13 | C[C@@H](Nc1nc(Cl)nc2c1CN(C(=O)N1CCOc3ncccc31)C2)c1cc(N)cc(C(F)(F)F)c1 [Example 365] | < 1000 nM | < 400 nM | < 1000 nM
14 | C[C@@H](Nc1nc(Cl)nc2c1CN(C(=O)[C@]13CN[C@H](CO1)C3)C2)c1cccc(C(F)F)c1F [Example 290] | < 1000 nM | < 400 nM | < 1000 nM
15 | COC1(C(=O)N2Cc3nc(Cl)nc(N[C@H](C)c4cccc(C(F)F)c4F)c3C2)CCN(CCF)CC1 [Example 343] | < 1000 nM | < 400 nM | < 1000 nM
16 | C[C@@H](Nc1nc(Cl)nc2c1CN(C(=O)N1C3CCC1COC3)C2)c1cccc(C(F)F)c1F [Example 396] | < 1000 nM | < 400 nM | < 1000 nM
17 | COc1ccc(CC(=O)N2Cc3nc(Cl)nc(N[C@H](C)c4cc(N)cc(C(F)(F)F)c4)c3C2)cc1OC [Example 102] | < 1000 nM | > 400 nM | > 1000 nM
18 | COC1(C(=O)N2Cc3nc(Cl)nc(N[C@H](C)c4cccc(C(F)F)c4F)c3C2)COC1 [Example 489] | < 1000 nM | < 400 nM | < 1000 nM
19 | C[C@@H](Nc1nc(OC(F)(F)F)nc2c1CN(C(=O)N1CCOCC1)C2)c1cc(N)cc(C(F)(F)F)c1 [Example 126, N-[(1R)-1-[3-amino-5-(trifluoro-methyl)phenyl]ethyl]-6-(morpholine-4-carbonyl)-2-(trifluoro-methoxy)-5H,6H,7H-pyrrolo-[3,4-d]pyrimidin-4-amine] | < 1000 nM | > 400 nM | > 1000 nM
20 | Cc1c(C(F)F)cccc1[C@@H](C)Nc1nc(Cl)nc2c1CN(C(=O)N1CCOCC1)C2 [Example 492] | < 1000 nM | < 400 nM | < 1000 nM

Row | Structure (SMILES) | IC50 [1] | Kd [2] | IC50 [3]
21 | C[C@@H](Nc1nc(Cl)nc2c1CN(C(=O)C1CN(C3CCOC3)C1)C2)c1cccc(C(F)F)c1F (some centres unmarked) [Example 295] | < 1000 nM | < 400 nM | < 1000 nM
22 | C[C@@H](Nc1nc(Cl)nc2c1CN(C(=O)[C@H]1C[C@@H](O)C1)C2)c1cc(N)cc(C(F)(F)F)c1 [Example 260] | < 1000 nM | < 400 nM | < 1000 nM
23 | COC1(C(=O)N2Cc3nc(Cl)nc(N[C@H](C)c4cccc(C(F)F)c4F)c3C2)CNC1 [Example 302] | < 1000 nM | < 400 nM | < 1000 nM
24 | C[C@@H](Nc1nc(Cl)nc2c1CN(C(=O)N1C[C@H]3C[C@@H]1CN3)C2)c1cccc(C(F)F)c1F [Example 406] | < 1000 nM | < 400 nM | < 1000 nM
25 | C[C@@H](Nc1ncnc2c1CC(N1CC3(COC3)C1)CC2)c1cccc(C(F)F)c1F (some centres unmarked) [Example 442] | > 1000 nM | < 400 nM | < 1000 nM
26 | C[C@@H](Nc1nc(Cl)nc2c1CN(C(=O)C13CCN(CC1)C3)C2)c1cccc(C(F)F)c1F [Example 312] | < 1000 nM | < 400 nM | < 1000 nM
27 | C[C@@H](Nc1nc(Cl)nc2c1CN(C(=O)C13CC(O)(C1)C3)CC2)c1cc(N)cc(C(F)(F)F)c1 [Example 193] | > 1000 nM | < 400 nM | > 1000 nM
28 | COC1(C(=O)N2Cc3nc(Cl)nc(N[C@H](C)c4cccc(C(F)(F)CO)c4)c3C2)CCOCC1 [Example 167, [2-chloro-4-[[(1R)-1-[3-(1,1-difluoro-2-hydroxy-ethyl)phenyl]ethyl]amino]-5,7-dihydropyrrolo[3,4-d]pyrimidin-6-yl]-(4-methoxytetrahydropyran-4-yl)methanone] | < 1000 nM | < 400 nM | < 1000 nM
29 | COC1(C(=O)N2Cc3nc(Cl)nc(N[C@H](C)c4cccc(C(F)(F)CN)c4)c3C2)CCOCC1 [Example 525, N-[(1R)-1-[3-(2-amino-1,1-difluoroethyl)phenyl]ethyl]-2-chloro-6-(4-methoxyoxane-4-carbonyl)-5H,6H,7H-pyrrolo[3,4-d]pyrimidin-4-amine] | < 1000 nM | < 400 nM | < 1000 nM
30 | C[C@@H](Nc1nc(Cl)nc2c1CN(C(=O)N1C[C@H]3C[C@@H]1CN3C)C2)c1cccc(C(F)F)c1F [Example 416] | < 1000 nM | < 400 nM | < 1000 nM
31 | C[C@@H](Nc1nc(Cl)nc2c1CN(C(=O)C1(C#N)CCN(C)CC1)C2)c1cccc(C(F)(F)F)c1 [Example 280] | < 1000 nM | < 400 nM | < 1000 nM
32 | C[C@@H](Nc1nc(Cl)nc2c1CN(C(=O)C1CC1)CC2)c1cc(N)cc(C(F)(F)F)c1 [Example 219] | < 1000 nM | < 400 nM | < 1000 nM
33 | C[C@@H](Nc1nc(Cl)nc2c1CN(C(=O)C1C3COCC31)C2)c1cc(N)cc(C(F)(F)F)c1 (some centres unmarked) [Example 94] | < 1000 nM | < 400 nM | < 1000 nM
34 | C[C@@H](Nc1nc(Cl)nc2c1CN(C(=O)C1(C)CN(C3COC3)C1)C2)c1cccc(C(F)F)c1F [Example 335] | < 1000 nM | < 400 nM | < 1000 nM
35 | C[C@@H](Nc1nc(Cl)nc2c1CN(C(=O)N1CCOC(F)(F)C1)C2)c1cccc(C(F)F)c1F [Example 411] | < 1000 nM | < 400 nM | < 1000 nM
36 | C[C@@H](Nc1nc(Cl)nc2c1CN(C(=O)N1CCNc3ncccc31)C2)c1cc(N)cc(C(F)(F)F)c1 [Example 138] | < 1000 nM | < 400 nM | < 1000 nM
37 | COC1CC(N)(C(=O)N2Cc3nc(Cl)nc(N[C@H](C)c4cccc(C(F)F)c4F)c3C2)C1 (some centres unmarked) [Example 289] | < 1000 nM | < 400 nM | < 1000 nM
38 | O=C(N1CCOCC1)N1Cc2nc(Cl)nc(NC(CF)c3cccc(C(F)(F)CO)c3)c2C1 (centres unmarked) [Example 463, (2-chloro-4-((1-(3-(1,1-difluoro-2-hydroxyethyl)phenyl)-2-fluoroethyl)amino)-5,7-dihydro-6H-pyrrolo[3,4-d]pyrimidin-6-yl)(morpholino)methanone] | > 1000 nM | < 400 nM | < 1000 nM
39 | CNCc1ccccc1-c1cccc(C(C)Nc2nc(Cl)nc3c2CN(C(=O)N2CCOCC2)C3)c1 (centres unmarked) [Example 32, [2-chloro-4-[1-[3-[2-(methylaminomethyl)phenyl]phenyl]ethylamino]-5,7-dihydropyrrolo[3,4-d]pyrimidin-6-yl]-morpholino-methanone] | < 1000 nM | < 400 nM | 
